In brackets after ≈: the same amount, converted by molar mass. Values belong to the compound of their own block, whether it stands above or below them.
What was measured:
[1] = tested on: MBL-producing P. aeruginosa clinical isolates; assay: MIC by broth microdilution (CLSI); type: cell-based, Pseudomonas aeruginosa; details: for MIC: Pseudomonas aeruginosa
Method: The DMSO stock solutions of the test compounds were serially diluted to the desired concentrations in CAMHB. Then, 10 μL of the bacterial suspension (5 × 10^5 colony forming units (CFU)/mL) was combined with 200 μL of DMSO stock solutions of the test compounds in 96-well microtiter plates (1% DMSO, final). After the incubation of the plate at 37 °C for 24 h, bacterial growth was visibly evaluated by monitoring the turbidity of the resulting suspension, and the MICs were determined as the lowest concentrations of the test compounds that inhibited the visible growth of the bacteria.

[2] = tested on: MBL-producing P. aeruginosa static biofilms; assay: Anti-biofilm activity, crystal violet staining; type: cell-based, Pseudomonas aeruginosa; details: for Biofilm biomass (OD600): 27 32 mg/L
Description: inhibitor 27 against MBL-producing P. aeruginosa clinical isolates.
1 Biofilm biomass was quantified by crystal violet staining at OD600.2 %-inhibition of biofilm

[3] = tested on: MBL-producing P. aeruginosa clinical isolates; assay: Broth microdilution checkerboard synergy assay (MIC of ATM in combination); type: cell-based, Pseudomonas aeruginosa; details: for MIC of ATM, alone or in combination: Table 4; for MIC Value of ATM, alone or in combination with ARMA: Table 2
[4] = tested on: efflux pump of PA-038blaNDM; assay: Inhibition of efflux pumps: EtBr accumulation/efflux; type: cell-based, Pseudomonas aeruginosa; details: 8 mg/L of compound
Method: The accumulation of EtBr inside the NDM-producing (PA-038blaNDM) P. aeruginosa clinical isolates was monitored as previously described. Briefly, the P. aeruginosa strain was grown in 5 mL of LB medium until it reached the mid-log phase, and the bacteria were centrifuged at 3500 rpm for 15 min. The resulting pellet was washed twice with an equal volume of PBS. The concentration of the bacterial suspension was adjusted (OD600 = 0.3) and added to each well of a flat-bottomed 96-well black plate ([…]). After the addition of glucose (4 µL) to the cellular suspension at a final concentration of 0.4% (w/v), 4 µL of the title compound or positive control CCCP was added to the plate. Finally, EtBr (10 µL) was also added to each well at a final concentration of 1 µg/mL, and the plate was incubated at 37 °C for 60 min, during which time fluorescence emission from EtBr was recorded (λex 480 nm/λem 630 nm) with a 2-min interval, using a Cytation 5 imaging multi-mode reader (BioTek Instruments, Inc., Winooski, VT, USA).

KPC-2 = molecular target: T1, KPC-2 (Klebsiella pneumoniae, UniProt Q9F663); assay: β-lactamase inhibition, nitrocefin hydrolysis; type: biochemical; details: nitrocefin substrate; read-out: β-Lactamases, IC50 KPC-2
T1 construct: purchased LifeSpan Biosciences, Inc. LS-G26598
Description: (§1) Recombinant AmpC from Escherichia coli was produced according to a previously reported protocol. KPC-2 and NDM-1 […] were purchased from LifeSpan Biosciences, Inc. (Lynnwood, WA, USA) (LS-G26598) and RayBiotech, Inc. (Peachtree Corners, GA, USA) (230-00554), respectively. Genes encoding OXA-48 (residues 23–265) and VIM-2 (residues 27–266) were custom-synthesized (Bioneer Inc., Seoul, Republic of Korea) and expressed as previously described. The β-lactamase inhibitory activity of the title compounds was then determined according to the previously reported methods. Briefly, equal volumes (100 μL) of the title compounds (70–0.1 μM in PBS) and diluted enzyme stock were mixed (final concentration 2% of DMSO in 200 μL) in 96-well plates, which were then incubated at 37 °C for 20 min. The incubated mixture was added to each well containing substrates (nitrocefin for AmpC, KPC-2, OXA-48, and VIM-2; and imipenem for NDM-1) of final concentrations of 70 μM for nitrocefin and 100 μM for imipenem. Substrate hydrolysis was monitored at 486 nm (nitrocefin) or 300 nm (imipenem) for 15 min, using a Cytation 5 imaging multimode reader (BioTek Instruments Inc., Winooski, VT, USA). At the plateau level of hydrolysis, the corresponding rates of hydrolysis were compared to those obtained without inhibitors (100%) to determine the percentage of enzyme inhibition at each concentration of the title compounds. The IC50 values of the compounds were derived from sigmoidal dose–response curves, using GraphPad Prism 5 (GraphPad Software, Boston, MA, USA).

AmpC = molecular target: T2, AmpC (Escherichia coli, UniProt P00811); assay: β-lactamase inhibition, nitrocefin hydrolysis; type: biochemical
T2 construct: made in house
Description: as §1

VIM-2 = molecular target: T3, VIM-2 (Escherichia coli, UniProt Q5U7L7); assay: β-lactamase inhibition, nitrocefin hydrolysis; type: biochemical; details: nitrocefin substrate; read-out: β-Lactamases, IC50 VIM-2
T3 construct: Genes encoding OXA-48 (residues 23–265) and VIM-2 (residues 27–266) were custom-synthesized; made in house
Description: as §1

OXA-48 = molecular target: T4, OXA-48 (Klebsiella pneumoniae, UniProt Q6XEC0); assay: β-lactamase inhibition, nitrocefin hydrolysis; type: biochemical; details: nitrocefin substrate; read-out: β-Lactamases, IC50 OXA-48
T4 construct: Genes encoding OXA-48 (residues 23–265) and VIM-2 (residues 27–266) were custom-synthesized; made in house
Description: as §1

ESBLs = tested on: ESBLs; parameters: method as in PMID 32843653; details: cited from earlier work
NDM-1 = molecular target: T5, NDM-1 (Klebsiella pneumoniae, UniProt C7C422); assay: β-lactamase inhibition, imipenem hydrolysis; type: biochemical; details: imipenem substrate; read-out: β-Lactamases, IC50 NDM-1
T5 construct: purchased RayBiotech, Inc. 230-00554
Description: as §1

[5] = tested on: human liver (HepG2) cell line; assay: HepG2 cell viability; type: cell-based; details: up to 64 mg/L, 24 h exposure
Method: Concentration of 27 (mg/L)
Figure S1. Cell viability of human hepatoma HepG2 cells presented as percentage of
control after 24 h exposure to different concentrations of 27. The data represent the
average values of three experiments (± SD).

T4 sequence (Q6XEC0 23-265 limits assumed): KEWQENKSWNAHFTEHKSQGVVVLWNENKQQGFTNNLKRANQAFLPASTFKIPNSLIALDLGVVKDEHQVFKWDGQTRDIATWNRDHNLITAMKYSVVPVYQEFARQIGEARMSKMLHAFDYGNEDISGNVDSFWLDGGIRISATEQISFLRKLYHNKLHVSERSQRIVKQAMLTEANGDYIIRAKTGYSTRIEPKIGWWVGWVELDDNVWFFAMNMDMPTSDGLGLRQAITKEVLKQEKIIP
T5 sequence (C7C422 29-270, looked up, species assumed): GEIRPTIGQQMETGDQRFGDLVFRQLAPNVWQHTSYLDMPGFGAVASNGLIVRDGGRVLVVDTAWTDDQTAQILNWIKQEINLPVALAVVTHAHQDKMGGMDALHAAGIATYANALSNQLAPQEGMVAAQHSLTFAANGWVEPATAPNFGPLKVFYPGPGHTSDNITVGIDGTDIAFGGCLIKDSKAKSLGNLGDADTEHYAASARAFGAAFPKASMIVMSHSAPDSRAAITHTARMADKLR
T1 sequence (Q9F663 25-293, looked up): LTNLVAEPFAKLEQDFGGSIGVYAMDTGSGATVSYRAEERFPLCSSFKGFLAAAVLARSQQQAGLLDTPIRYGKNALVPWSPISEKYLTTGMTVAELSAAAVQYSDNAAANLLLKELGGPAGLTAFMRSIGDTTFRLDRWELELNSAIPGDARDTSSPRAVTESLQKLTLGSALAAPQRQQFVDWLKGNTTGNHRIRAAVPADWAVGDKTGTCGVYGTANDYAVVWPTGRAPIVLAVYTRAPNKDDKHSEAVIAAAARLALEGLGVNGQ
T2 sequence (P00811 20-377): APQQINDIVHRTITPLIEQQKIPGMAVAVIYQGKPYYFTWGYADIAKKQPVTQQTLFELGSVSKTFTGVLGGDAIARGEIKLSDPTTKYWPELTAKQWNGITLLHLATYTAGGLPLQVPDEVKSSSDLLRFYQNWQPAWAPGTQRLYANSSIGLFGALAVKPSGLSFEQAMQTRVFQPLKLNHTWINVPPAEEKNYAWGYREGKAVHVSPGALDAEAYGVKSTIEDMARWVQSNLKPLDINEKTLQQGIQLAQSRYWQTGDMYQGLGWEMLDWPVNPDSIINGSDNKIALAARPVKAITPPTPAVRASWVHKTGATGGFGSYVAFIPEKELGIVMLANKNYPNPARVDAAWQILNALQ

ATM MICs relative to the CLSI antibiotic susceptibility breakpoint (1 mg/L) ([1]; 21 MBL-producing P. aeruginosa strains): 8–64 times higher | MIC ([1]; PA-001, blaNDM): 32 µg/mL (≈ 73.5 µM) | MIC ([1]; PA-002, blaIMP): 64 µg/mL (≈ 147 µM) | MIC ([1]; PA-007, blaNDM): 16 µg/mL (≈ 36.7 µM) | MIC ([1]; PA-008, blaNDM): 16 µg/mL (≈ 36.7 µM) | MIC ([1]; PA-011, blaNDM): 16 µg/mL (≈ 36.7 µM) | MIC ([1]; PA-012, blaNDM): 16 µg/mL (≈ 36.7 µM) | MIC ([1]; PA-016, blaIMP): 64 µg/mL (≈ 147 µM) | MIC ([1]; PA-017, blaNDM): 16 µg/mL (≈ 36.7 µM) | MIC ([1]; PA-019, blaNDM): 16 µg/mL (≈ 36.7 µM) | MIC ([1]; PA-020, blaNDM): 16 µg/mL (≈ 36.7 µM) | MIC ([1]; PA-023, blaNDM): 16 µg/mL (≈ 36.7 µM) | MIC ([1]; PA-025, blaNDM): 16 µg/mL (≈ 36.7 µM) | MIC ([1]; PA-027, blaIMP): 32 µg/mL (≈ 73.5 µM) | MIC ([1]; PA-028, blaNDM): 8 µg/mL (≈ 18.4 µM) | MIC ([1]; PA-029, blaIMP): 64 µg/mL (≈ 147 µM) | MIC ([1]; PA-030, blaIMP): 64 µg/mL (≈ 147 µM) | MIC ([1]; PA-034, blaNDM): 16 µg/mL (≈ 36.7 µM) | MIC ([1]; PA-036, blaNDM): 16 µg/mL (≈ 36.7 µM) | MIC ([1]; PA-038, blaNDM): 16 µg/mL (≈ 36.7 µM) | MIC ([1]; PA-039, blaNDM): 16 µg/mL (≈ 36.7 µM) | MIC ([1]; PA-044, blaNDM): 16 µg/mL (≈ 36.7 µM) | MIC of ATM, alone or in combination ([3]; PA-001, blaNDM): 32 µg/mL | MIC Value of ATM, alone or in combination with ARMA ([3]; PA-002, blaIMP): 64 µg/mL | MIC of ATM, alone or in combination ([3]; PA-002, blaIMP): 64 µg/mL | MIC Value of ATM, alone or in combination with ARMA ([3]; PA-003, blaVIM): 32 µg/mL | MIC of ATM, alone or in combination ([3]; PA-007, blaNDM): 16 µg/mL | MIC of ATM, alone or in combination ([3]; PA-008, blaNDM): 16 µg/mL | MIC of ATM, alone or in combination ([3]; PA-011, blaNDM): 16 µg/mL | MIC of ATM, alone or in combination ([3]; PA-012, blaNDM): 16 µg/mL | MIC of ATM, alone or in combination ([3]; PA-016, blaIMP): 64 µg/mL | MIC of ATM, alone or in combination ([3]; PA-017, blaNDM): 16 µg/mL | MIC of ATM, alone or in combination ([3]; PA-019, blaNDM): 16 µg/mL | MIC of ATM, alone or in combination ([3]; PA-020, blaNDM): 16 µg/mL | MIC of ATM, alone or in combination ([3]; PA-023, blaNDM): 16 µg/mL | MIC Value of ATM, alone or in combination with ARMA ([3]; PA-025, blaNDM): 16 µg/mL | MIC of ATM, alone or in combination ([3]; PA-025, blaNDM): 16 µg/mL | MIC of ATM, alone or in combination ([3]; PA-027, blaIMP): 32 µg/mL | MIC of ATM, alone or in combination ([3]; PA-028, blaNDM): 8 µg/mL | MIC of ATM, alone or in combination ([3]; PA-029, blaIMP): 64 µg/mL | MIC of ATM, alone or in combination ([3]; PA-030, blaIMP): 64 µg/mL | MIC of ATM, alone or in combination ([3]; PA-034, blaNDM): 16 µg/mL | MIC of ATM, alone or in combination ([3]; PA-036, blaNDM): 16 µg/mL | MIC Value of ATM, alone or in combination with ARMA ([3]; PA-038, blaNDM): 16 µg/mL | MIC of ATM, alone or in combination ([3]; PA-038, blaNDM): 16 µg/mL | MIC of ATM, alone or in combination ([3]; PA-039, blaNDM): 16 µg/mL | MIC of ATM, alone or in combination ([3]; PA-044, blaNDM): 16 µg/mL
Structure (SMILES): C[C@H]1[C@H](NC(=O)/C(=N\OC(C)(C)C(=O)O)c2csc(N)n2)C(=O)N1S(=O)(=O)O [ATM, aztreonam]
inhibition of biofilm formation ([2]; 1/2 × MIC ATM alone): no significant inhibition of biofilm formation | Biofilm biomass (OD600) ([2]; PA-007, blaNDM, ATM 1/2 MIC (8 mg/L)): 1.03 | Biofilm biomass (OD600) ([2]; PA-011, blaNDM, ATM 1/2 MIC (8 mg/L)): 0.51 | Biofilm biomass (OD600) ([2]; PA-012, blaNDM, ATM 1/2 MIC (8 mg/L)): 0.23 | Biofilm biomass (OD600) ([2]; PA-030, blaIMP, ATM 1/2 MIC (32 mg/L)): 1.84

Structure (SMILES): N#CC(C#N)=NNc1cccc(Cl)c1 [CCCP, carbonyl cyanide 3-chlorophenylhydrazone]
EtBr fluorescence (accumulation) [4]: became stronger

Structure (SMILES): O=c1c(O)c(-c2ccc(F)c(F)c2)oc2cc(O)cc(O)c12 [Compound 1, 3′,4′-difluoroquercetin]
IC50 (KPC-2): > 50 µM | IC50 (AmpC): > 50 µM | IC50 (VIM-2): > 100 µM | IC50 (OXA-48): > 100 µM | inhibition of ESBLs (ESBLs): not to inhibit ESBLs | EtBr fluorescence (accumulation) [4]: as potent as CCCP | IC50 (NDM-1): > 50 µM | concentration at which ATM-potentiating activity was observed ([3]; four representative MBL-producing P. aeruginosa strains (Table 2)): 8 to 16 mg/L

Structure (SMILES): CC(C)(C)CCOc1c(-c2ccc(F)c(F)c2)oc2cc(O)cc(O)c2c1=O [Compound 23]
IC50 (KPC-2): 17.3 µM | IC50 (AmpC): 18.9 µM | IC50 (VIM-2): 11.9 µM | IC50 (OXA-48): 14.8 µM | EtBr fluorescence (accumulation) [4]: significant increase in EtBr accumulation | IC50 (NDM-1): 11.4 µM

Structure (SMILES): O=c1c(OCCC2CCCC2)c(-c2ccc(F)c(F)c2)oc2cc(O)cc(O)c12 [Compound 26]
IC50 (KPC-2): 11.5 µM | IC50 (AmpC): 21 µM | IC50 (VIM-2): 9 µM | IC50 (OXA-48): 8 µM | EtBr fluorescence (accumulation) [4]: significant increase in EtBr accumulation | IC50 (NDM-1): 15.9 µM

Structure (SMILES): O=c1c(OCCC2CCCCC2)c(-c2ccc(F)c(F)c2)oc2cc(O)cc(O)c12 [Compound 27]
cytotoxic effects [5]: no cytotoxic effects | IC50 (KPC-2): 11.3 µM | IC50 (AmpC): 15.3 µM | IC50 (VIM-2): 4.4 µM | IC50 (OXA-48): 6.3 µM | EtBr fluorescence (accumulation) [4]: significant increase in EtBr accumulation | IC50 (NDM-1): 10.1 µM | strains with more than a four-fold MIC reduction (synergistic effect) of ATM ([3]; 21 MBL-producing P. aeruginosa clinical strains, combination with ATM): 19 out of 21 | MIC ([3]; Pseudomonas aeruginosa, MBL-producing P. aeruginosa clinical isolates, no activity up to this concentration, read-out: antimicrobial activity (MIC) of the compound alone): > 512 µg/mL

— paper PMC10892423 (Pharmaceutics, 2024)
